Experimental data as given in patent US20210255193A1, “LYSINE REACTIVE PROBES AND USES THEREOF” (The Scripps Research Institute, priority 2017, published 2021).
Blank lines part the entries; values can stand above or below the compound they belong to.

Columns and labels:
Test in all cases: competitive isoTOP-ABPP
Type in all cases: binding
[1] = molecular target: T1, FAM136A Protein FAM136A (Homo sapiens, UniProt Q96C01); settings: for R value (DMSO/fragment) for probe 1 labeling: Q96C01_K99; for R value (DMSO/fragment) for probe 1 labeling / isoTOP-ABPP ratio (R) at liganded lysine Q96C01_K99 / isoTOP-ABPP reactivity ratio at lysine Q96C01_K99: 50 uM, in vitro; for R value (DMSO/fragment) for probe 1 labeling / isoTOP-ABPP reactivity ratio at lysine Q96C01_K99: 231 sol; for isoTOP-ABPP ratio (R) at liganded lysine Q96C01_K99: sol, 231
T1 construct: isoTOP-ABPP experiments performed in cell lysates (in vitro); endogenous in cells; host or cells: soluble proteome of human cancer cell lines (MDA-MB-231; Ramos and Jurkat also prepared)
Outline: (§1)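 Here, isoTOP-ABPP measures loss of STP-alkyne labeling at individual lysines after fragment exposure in lysate. Activated esters are dosed at 50 μM, guanidinylating agents at 100 μM; the probe follows at 0.1 mM for 1 h. R ≥4 marks a liganded lysine.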

[2] = molecular target: T2, DTYMK Thymidylate kinase (Homo sapiens, UniProt P23919); settings: for R value (DMSO/fragment) for probe 1 labeling: P23919_K118; for R value (DMSO/fragment) for probe 1 labeling / isoTOP-ABPP ratio (R) at liganded lysine P23919_K118 / isoTOP-ABPP reactivity ratio at lysine P23919_K118: 50 uM, in vitro; for R value (DMSO/fragment) for probe 1 labeling / isoTOP-ABPP reactivity ratio at lysine P23919_K118: 231 sol; for isoTOP-ABPP ratio (R) at liganded lysine P23919_K118: sol, 231
T2 construct: isoTOP-ABPP experiments performed in cell lysates (in vitro); endogenous in cells; host or cells: soluble proteome of human cancer cell lines (MDA-MB-231; Ramos and Jurkat also prepared)
T2 sequence (P23919 1-212): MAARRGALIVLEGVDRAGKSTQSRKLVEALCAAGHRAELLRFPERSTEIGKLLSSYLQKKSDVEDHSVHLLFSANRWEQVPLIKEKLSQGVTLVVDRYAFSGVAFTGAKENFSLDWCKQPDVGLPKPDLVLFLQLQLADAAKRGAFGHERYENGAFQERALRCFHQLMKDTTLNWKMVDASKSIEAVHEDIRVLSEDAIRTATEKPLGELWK
Outline: as §1

[3] = molecular target: T3, NLN Neurolysin, mitochondrial (Homo sapiens, UniProt Q9BYT8); settings: 50 uM, in vitro; for R value (DMSO/fragment) for probe 1 labeling: Q9BYT8_K253; for R value (DMSO/fragment) for probe 1 labeling / isoTOP-ABPP reactivity ratio at lysine Q9BYT8_K253: 231 sol; for isoTOP-ABPP ratio (R) at liganded lysine Q9BYT8_K253: sol, 231
T3 construct: isoTOP-ABPP experiments performed in cell lysates (in vitro); endogenous in cells; host or cells: soluble proteome of human cancer cell lines (MDA-MB-231; Ramos and Jurkat also prepared)
Outline: as §1

[4] = molecular target: T4, FH Fumarate hydratase, mitochondrial (Homo sapiens, UniProt P07954); settings: for R value (DMSO/fragment) for probe 1 labeling: P07954_K311; for isoTOP-ABPP ratio (R) at liganded lysine P07954_K311: sol, 231
T4 construct: isoTOP-ABPP experiments performed in cell lysates (in vitro); endogenous in cells; host or cells: MDA-MB-231 soluble lysate
T4 sequence (P07954 45-510): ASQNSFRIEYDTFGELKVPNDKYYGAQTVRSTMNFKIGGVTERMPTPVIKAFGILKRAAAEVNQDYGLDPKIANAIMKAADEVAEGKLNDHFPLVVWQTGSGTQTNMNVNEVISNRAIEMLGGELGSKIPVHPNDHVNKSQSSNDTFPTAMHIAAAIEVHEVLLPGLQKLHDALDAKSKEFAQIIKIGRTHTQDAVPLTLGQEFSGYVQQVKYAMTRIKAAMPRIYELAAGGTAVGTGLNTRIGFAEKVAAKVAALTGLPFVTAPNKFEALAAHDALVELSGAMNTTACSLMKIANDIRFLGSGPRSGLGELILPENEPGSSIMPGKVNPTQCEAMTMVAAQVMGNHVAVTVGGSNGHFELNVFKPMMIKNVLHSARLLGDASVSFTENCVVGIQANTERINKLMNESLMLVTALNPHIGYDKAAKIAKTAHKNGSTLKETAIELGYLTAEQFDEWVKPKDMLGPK
Outline: as §1

[5] = molecular target: T5, DNMT1 DNA (cytosine-5)-methyltransferase 1 (Homo sapiens, UniProt P26358); settings: 50 uM, in vitro; for R value (DMSO/fragment) for probe 1 labeling: P26358_K45; for R value (DMSO/fragment) for probe 1 labeling / isoTOP-ABPP reactivity ratio at lysine P26358_K45: 231 sol; for isoTOP-ABPP ratio (R) at liganded lysine P26358_K45: sol, 231
T5 construct: isoTOP-ABPP experiments performed in cell lysates (in vitro); endogenous in cells; host or cells: soluble proteome of human cancer cell lines (MDA-MB-231; Ramos and Jurkat also prepared)
Outline: as §1

[6] = molecular target: T6, AKR1C3 Aldo-keto reductase family 1 member C3 (Homo sapiens, UniProt P42330); settings: for isoTOP-ABPP ratio (R) at liganded lysine P42330_K270: sol, 231
T6 construct: isoTOP-ABPP experiments performed in cell lysates (in vitro); endogenous in cells; host or cells: soluble proteome of human cancer cell lines (MDA-MB-231; Ramos and Jurkat also prepared)
T6 sequence (P42330 1-323): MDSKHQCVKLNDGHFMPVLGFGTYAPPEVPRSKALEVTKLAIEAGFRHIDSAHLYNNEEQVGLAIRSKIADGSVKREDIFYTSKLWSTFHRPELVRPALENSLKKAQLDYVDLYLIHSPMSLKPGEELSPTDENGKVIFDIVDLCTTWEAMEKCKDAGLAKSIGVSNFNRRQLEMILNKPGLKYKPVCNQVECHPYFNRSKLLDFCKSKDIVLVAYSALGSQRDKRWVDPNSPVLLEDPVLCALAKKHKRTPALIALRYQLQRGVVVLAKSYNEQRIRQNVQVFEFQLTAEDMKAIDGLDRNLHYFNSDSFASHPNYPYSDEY
Outline: as §1

T5 sequence (P26358 whole entry, the tested form may be a part): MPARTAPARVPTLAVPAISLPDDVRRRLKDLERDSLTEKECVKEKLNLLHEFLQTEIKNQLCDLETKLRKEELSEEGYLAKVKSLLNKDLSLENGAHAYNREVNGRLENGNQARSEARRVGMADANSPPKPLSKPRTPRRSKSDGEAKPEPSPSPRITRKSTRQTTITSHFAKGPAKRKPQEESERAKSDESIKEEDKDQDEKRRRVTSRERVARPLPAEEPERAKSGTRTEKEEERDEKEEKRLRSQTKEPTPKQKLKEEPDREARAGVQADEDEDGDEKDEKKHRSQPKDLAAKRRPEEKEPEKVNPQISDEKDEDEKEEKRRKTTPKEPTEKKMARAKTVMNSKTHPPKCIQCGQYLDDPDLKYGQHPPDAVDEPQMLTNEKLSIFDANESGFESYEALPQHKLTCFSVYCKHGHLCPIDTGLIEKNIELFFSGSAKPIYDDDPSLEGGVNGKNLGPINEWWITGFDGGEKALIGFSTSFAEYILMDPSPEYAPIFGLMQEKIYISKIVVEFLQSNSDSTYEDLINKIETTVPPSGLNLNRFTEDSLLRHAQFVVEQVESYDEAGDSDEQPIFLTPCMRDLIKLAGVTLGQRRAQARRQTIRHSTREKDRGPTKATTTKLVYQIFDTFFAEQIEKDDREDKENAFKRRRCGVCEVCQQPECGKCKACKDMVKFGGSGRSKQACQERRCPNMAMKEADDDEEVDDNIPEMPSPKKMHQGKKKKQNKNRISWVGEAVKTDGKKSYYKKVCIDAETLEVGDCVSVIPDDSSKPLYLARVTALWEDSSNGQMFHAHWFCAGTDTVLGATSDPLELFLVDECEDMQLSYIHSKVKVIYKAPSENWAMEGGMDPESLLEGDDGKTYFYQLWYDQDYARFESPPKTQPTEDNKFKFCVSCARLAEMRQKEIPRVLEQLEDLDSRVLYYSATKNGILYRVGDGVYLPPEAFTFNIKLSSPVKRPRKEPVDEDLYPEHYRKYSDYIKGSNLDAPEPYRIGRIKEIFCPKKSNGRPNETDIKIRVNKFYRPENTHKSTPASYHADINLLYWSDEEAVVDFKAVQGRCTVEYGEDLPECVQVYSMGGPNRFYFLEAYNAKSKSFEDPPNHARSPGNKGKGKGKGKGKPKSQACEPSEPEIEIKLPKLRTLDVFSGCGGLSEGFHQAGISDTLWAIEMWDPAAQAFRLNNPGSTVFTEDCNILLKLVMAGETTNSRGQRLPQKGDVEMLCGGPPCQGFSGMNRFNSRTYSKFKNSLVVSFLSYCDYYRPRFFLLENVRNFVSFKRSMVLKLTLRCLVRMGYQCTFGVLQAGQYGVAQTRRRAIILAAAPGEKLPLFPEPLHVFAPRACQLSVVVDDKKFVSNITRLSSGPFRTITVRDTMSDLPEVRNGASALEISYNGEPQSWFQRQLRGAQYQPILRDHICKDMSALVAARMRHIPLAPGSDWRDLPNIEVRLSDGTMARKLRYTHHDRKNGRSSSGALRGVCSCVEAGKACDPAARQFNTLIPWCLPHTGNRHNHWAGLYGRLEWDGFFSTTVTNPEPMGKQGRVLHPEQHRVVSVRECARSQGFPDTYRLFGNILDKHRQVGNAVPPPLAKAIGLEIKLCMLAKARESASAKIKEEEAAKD
T3 sequence (Q9BYT8 38-704): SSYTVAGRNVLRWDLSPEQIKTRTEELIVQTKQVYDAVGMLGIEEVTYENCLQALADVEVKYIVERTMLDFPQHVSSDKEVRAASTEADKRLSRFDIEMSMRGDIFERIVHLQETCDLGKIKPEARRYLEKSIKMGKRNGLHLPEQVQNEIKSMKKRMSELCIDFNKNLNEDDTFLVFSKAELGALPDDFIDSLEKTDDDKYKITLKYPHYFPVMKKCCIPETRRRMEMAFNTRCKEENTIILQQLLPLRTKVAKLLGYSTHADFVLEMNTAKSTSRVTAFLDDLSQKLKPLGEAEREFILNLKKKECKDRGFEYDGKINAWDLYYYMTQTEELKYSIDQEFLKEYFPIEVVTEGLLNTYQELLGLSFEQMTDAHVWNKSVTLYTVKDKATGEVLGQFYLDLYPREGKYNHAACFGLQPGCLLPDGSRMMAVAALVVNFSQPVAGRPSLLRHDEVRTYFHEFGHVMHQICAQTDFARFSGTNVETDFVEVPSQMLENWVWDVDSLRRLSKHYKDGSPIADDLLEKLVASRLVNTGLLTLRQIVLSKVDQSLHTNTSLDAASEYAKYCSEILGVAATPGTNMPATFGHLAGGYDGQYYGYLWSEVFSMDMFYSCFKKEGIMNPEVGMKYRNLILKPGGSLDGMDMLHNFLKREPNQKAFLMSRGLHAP
T1 sequence (Q96C01 whole entry, the tested form may be a part): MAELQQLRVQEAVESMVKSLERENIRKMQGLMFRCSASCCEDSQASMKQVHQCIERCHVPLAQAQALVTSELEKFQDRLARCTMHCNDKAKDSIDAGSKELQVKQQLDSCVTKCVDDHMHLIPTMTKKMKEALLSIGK

R value (DMSO/fragment) for probe 1 labeling [1]: 1.1
R value (DMSO/fragment) for probe 1 labeling [2]: 0.8
R value (DMSO/fragment) for probe 1 labeling [3]: 0.7
R value (DMSO/fragment) for probe 1 labeling ([4]; 50 uM, 231 sol, in vitro): 1.3
R value (DMSO/fragment) for probe 1 labeling [5]: 1.4
Compound: O=C(Oc1c(F)c(F)c(F)c(F)c1F)c1cc(C(F)(F)F)cc(C(F)(F)F)c1 [fragment 21, Pentafluorophenyl 3,5-bis(trifluoromethyl)benzoate]

Compound: CC(C)(C)OC(=O)NCCCC(=O)Oc1ccc([N+](=O)[O-])cc1[N+](=O)[O-] [fragment 41, 2,4-Dinitrophenyl 4-((tert-butoxycarbonyl)amino)butanoate]
isoTOP-ABPP ratio (R) at liganded lysine Q96C01_K99 [1]: 0.9
isoTOP-ABPP ratio (R) at liganded lysine P23919_K118 [2]: 0.8
isoTOP-ABPP ratio (R) at liganded lysine Q9BYT8_K253 [3]: 1.3
isoTOP-ABPP ratio (R) at liganded lysine P07954_K311 ([4]; 50 uM, in vitro): 1.0
isoTOP-ABPP ratio (R) at liganded lysine P42330_K270 ([6]; 50 uM, in vitro): 0.7

isoTOP-ABPP ratio, lysine Q96C01_K99 ([1]; 50 uM_231_sol_in vitro): 0.7
isoTOP-ABPP ratio, lysine P23919_K118 ([2]; 50 uM_231_sol_in vitro): 0.9
isoTOP-ABPP ratio, lysine P07954_K311 ([4]; 50 uM_231_sol_in vitro): 1.4
isoTOP-ABPP ratio, lysine P42330_K270 ([6]; 50 uM_231_sol_in vitro, possible other lysine P52895_K270, P17516_K270, Q04828_K270): 2.5
Compound: O=C(Oc1c(F)c(F)c(C(F)(F)F)c(F)c1F)c1cc(C(F)(F)F)cc(C(F)(F)F)c1 [fragment 47, 2,3,5,6-Tetrafluoro-4-(trifluoromethyl)phenyl 3,5-bis(trifluoromethyl)benzoate]

Compound: O=C(CCc1cn(-c2ccccc2)nc1-c1ccccc1)Oc1ccc([N+](=O)[O-])cc1[N+](=O)[O-] [fragment 29, 2,4-Dinitrophenyl 3-(1,3-diphenyl-1H-pyrazol-4-yl)propanoate]
isoTOP-ABPP reactivity ratio at lysine Q96C01_K99 [1]: 0.8
isoTOP-ABPP reactivity ratio at lysine P23919_K118 [2]: 1.1
isoTOP-ABPP reactivity ratio at lysine Q9BYT8_K253 [3]: 1.0
isoTOP-ABPP reactivity ratio at lysine P42330_K270 ([6]; 50 uM, 231 sol, in vitro): 2.1
isoTOP-ABPP reactivity ratio at lysine P26358_K45 [5]: 0.9

R value (DMSO/fragment) for probe 1 labeling [1]: 0.9
R value (DMSO/fragment) for probe 1 labeling [2]: 0.9
R value (DMSO/fragment) for probe 1 labeling [3]: 0.9
R value (DMSO/fragment) for probe 1 labeling ([4]; 50 uM, 231 sol, in vitro): 1.2
R value (DMSO/fragment) for probe 1 labeling ([6]; P42330_K270, 50 uM, 231 sol, in vitro): 1.4
R value (DMSO/fragment) for probe 1 labeling [5]: 7.3
Compound: O=C(Oc1c(F)c(F)c(F)c(F)c1F)C(c1ccccc1)c1ccccc1 [fragment 20, Pentafluorophenyl 2,2-diphenylacetate]

Compound: O=C(Oc1ccc([N+](=O)[O-])cc1[N+](=O)[O-])c1ccc(Oc2ccccc2)cc1 [fragment 39, 2,4-Dinitrophenyl 4-phenoxybenzoate]
isoTOP-ABPP ratio (R) at liganded lysine Q96C01_K99 [1]: 0.8
isoTOP-ABPP ratio (R) at liganded lysine P23919_K118 [2]: 0.8
isoTOP-ABPP ratio (R) at liganded lysine Q9BYT8_K253 [3]: 1.1
isoTOP-ABPP ratio (R) at liganded lysine P07954_K311 ([4]; 50 uM, in vitro): 0.9
isoTOP-ABPP ratio (R) at liganded lysine P42330_K270 ([6]; 50 uM, in vitro): 0.8
isoTOP-ABPP ratio (R) at liganded lysine P26358_K45 [5]: 1.0

Compound: O=C(Oc1ccc([N+](=O)[O-])cc1[N+](=O)[O-])c1ccc(-c2ccccc2)cc1 [fragment 37, 2,4-Dinitrophenyl [1,1′-biphenyl]-4-carboxylate]
isoTOP-ABPP ratio (R) at liganded lysine Q96C01_K99 [1]: 1.0
isoTOP-ABPP ratio (R) at liganded lysine P23919_K118 [2]: 0.9
isoTOP-ABPP ratio (R) at liganded lysine Q9BYT8_K253 [3]: 0.9
isoTOP-ABPP ratio (R) at liganded lysine P07954_K311 ([4]; 50 uM, in vitro): 1.2
isoTOP-ABPP ratio (R) at liganded lysine P42330_K270 ([6]; 50 uM, in vitro): 0.8
isoTOP-ABPP ratio (R) at liganded lysine P26358_K45 [5]: 0.7

Compound: COc1cc(CCC(=O)Oc2ccc([N+](=O)[O-])cc2[N+](=O)[O-])cc(OC)c1OC [fragment 33, 2,4-Dinitrophenyl 3-(3,4,5-trimethoxyphenyl)propanoate]
isoTOP-ABPP reactivity ratio at lysine Q96C01_K99 [1]: 0.7
isoTOP-ABPP reactivity ratio at lysine P23919_K118 [2]: 6.6
isoTOP-ABPP reactivity ratio at lysine Q9BYT8_K253 [3]: 4.1
isoTOP-ABPP reactivity ratio at lysine P07954_K311 ([4]; 50 uM, 231 sol, in vitro): 2.2
isoTOP-ABPP reactivity ratio at lysine P42330_K270 ([6]; 50 uM, 231 sol, in vitro): 1.0
isoTOP-ABPP reactivity ratio at lysine P26358_K45 [5]: 0.9
